These are literature values, as cited in US20030198597A1, “Novel macrocyclic activatible magnetic resonance imaging contrast agents” (priority 2002, published 2003).

For this data set the following is noted: thermodynamic stability of the Gd3+ chelate complex; background statement.

In the case of `O=C([O-])CN1CCN(CC(=O)[O-])CCN(CC(=O)[O-])CCN(CC(=O)[O-])CC1.[Gd+3]` [Gd-DOTA], the “stability constant (K) / formation constant, logK” value is listed as 28.5.
As for `O=C([O-])CN(CCN(CC(=O)[O-])CC(=O)[O-])CCN(CC(=O)[O-])CC(=O)[O-].[Gd+3]` [Gd(DTPA)^2−], the “stability constant (K) / formation constant, logK” value is 22.4.
